In US20240165042A1, “COMPOSITION FOR CONTROLLED RELEASE OF PHYSIOLOGICALLY ACTIVE SUBSTANCES AND PROCESS FOR ITS PREPARATION” (BALCHEM ITALIA S.R.L., priority 2017, published 2024):

What was measured:
Assay type in all cases: in vitro ADME
[1] = Degree of ruminal by-pass in vitro (pharmaceutical dissolver / Daisy II ANKOM artificial rumen, 39° C., 8 hours, ruminal pH about 6.8)
Procedure: In the context of the present invention, the term “ruminal by-pass” indicates the percentage amount by weight of substance reaching the animal post-ruminal area, namely the stomach and the intestine, with respect to the total amount by weight of the orally administered substance.
The experimental conditions of use were 39° C., 15 rpm, 8 hours presence in the solution with “ruminal” pH of about 6.8. • Daisy^II ANKOM: commercially available laboratory artificial rumen, for determining the degree of ruminal bypass. The experimental conditions of use were 39° C., 8 hours presence in ruminal conditions, buffer solution at “ruminal” pH with insertion of “ruminal inoculum” and re-creation of ruminal anaerobiosis according to a university procedure known to those skilled in the art. […] Pharmaceutical dissolver for determining the degree of post-ruminal digestibility. The experimental conditions of use followed the procedure known to experts in the field as “Boisen Test” and, in particular, they were: • 39° C., 30 rpm, 2 h, buffer solution with “gastric” pH (2.0)+pepsin inoculum. • 39 °C, 30 rpm, 4 h, buffer solution with “intestinal” pH (6.8)+pancreatine inoculum. • 39° C., 30 rpm, 18 h, buffer solution with “intestinal” pH (6.8)+lipase and bile extract inoculum.
(§1) Then the microgranules were subjected to an evaluation of the degree of ruminal by-pass, post-ruminal digestibility and total bioavailability using the Boisen method.

[2] = Post-ruminal digestibility in vitro (pharmaceutical dissolver, Boisen Test: gastric pH 2.0 + pepsin, intestinal pH 6.8 + pancreatine, then lipase and bile extract)
Procedure: (§2) The experimental conditions of use were 39° C., 15 rpm, 8 hours presence in the solution with “ruminal” pH of about 6.8. • Daisy^II ANKOM: commercially available laboratory artificial rumen, for determining the degree of ruminal bypass. The experimental conditions of use were 39° C., 8 hours presence in ruminal conditions, buffer solution at “ruminal” pH with insertion of “ruminal inoculum” and re-creation of ruminal anaerobiosis according to a university procedure known to those skilled in the art. The pH normally tested in the quality control phase is 6.8. Pharmaceutical dissolver for determining the degree of post-ruminal digestibility. The experimental conditions of use followed the procedure known to experts in the field as “Boisen Test” and, in particular, they were: • 39° C., 30 rpm, 2 h, buffer solution with “gastric” pH (2.0)+pepsin inoculum. • 39 °C, 30 rpm, 4 h, buffer solution with “intestinal” pH (6.8)+pancreatine inoculum. • 39° C., 30 rpm, 18 h, buffer solution with “intestinal” pH (6.8)+lipase and bile extract inoculum.
as §1

[3] = Total bioavailability in vitro (combination of ruminal by-pass and post-ruminal digestibility)
Procedure: as §2, §1

[4] = theoretical administration of 100 g of choline chloride
[5] = theoretical administration of 200 g of product

C[N+](C)(C)CCO.[Cl-] [Product A, choline chloride]
Bypassed Choline Chloride [1, 4]: 0 g | Choline Chloride lost in the rumen in 8 h [1, 4]: 101 g | Bypassed Choline Chloride [1, 5]: 0 g | Choline Chloride lost in the rumen in 8 h [1, 5]: 198 g | Choline Chloride in faeces [2, 4]: 0 g | Choline Chloride in faeces [2, 5]: 0 g | Bioavailable Choline Chloride [3, 4]: 0 g | Bioavailable Choline Chloride [3, 5]: 0 g
